The values that follow are results of earlier work, collected in patent publication US20170065526A1, “SOLID DOSAGE FORM OF RIVAROXABAN AND METHODS FOR MAKING THE SAME” (priority 2015, published 2017).

For the series the following is noted: relatively poor solubility, background statement.

Converted amounts (≈) assume the structure as drawn.

Broadly, the solubility is the concentration that dissolves in the medium under given conditions. On to `O=C(NC[C@H]1CN(c2ccc(N3CCOCC3=O)cc2)C(=O)O1)c1ccc(Cl)s1` [rivaroxaban, (S)-5-chloro-N-{[2-oxo-3-[4-(3-oxomorpholin-4-yl)phenyl]oxazolidin-5-yl]methyl}thiophene-2-carboxamide], for which the solubility was ~7 µg/mL (≈ 16.1 µM).
